Key:
[1] = target: T1, Mouse TNFα (Mus musculus, UniProt P06804); assay: Monomer exchange mass spectrometry, compound pre-incubated with m-TNFα; assay type: binding; conditions: 1:1 complex mixed with h-TNFα
T1 construct: made in house
T1 sequence (P06804 80-235 limits assumed): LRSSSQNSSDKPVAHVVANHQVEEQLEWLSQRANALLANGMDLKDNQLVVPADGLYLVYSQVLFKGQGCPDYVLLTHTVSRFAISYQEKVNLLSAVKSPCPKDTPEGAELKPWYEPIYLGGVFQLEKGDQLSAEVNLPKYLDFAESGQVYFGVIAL
Method: The experiment was then repeated in reverse. Excess compound of formula 3 was incubated with Mouse TNFα, the excess compound of formula (3) was then removed. Mass Spectral analysis confirmed that a 1:1 complex had been formed between the compound of formula (3) and m-TNFα. Human TNFα was now added to this sample which was then subjected to mass spectral analysis over a number of hours. […] In addition there was evidence of formation of the ligated human homotrimer (H3L), the unligated mouse homotrimer (M3) and for unbound compound of formula (3) (L). […] Once this complex (M3L) has dissociated, monomer subunit exchange between the H3 and M3 species proceeds and the liberated ligand is then able to form complexes with all 4 trimer species present in solution.

[2] = target: T2, human TNFα trimer (Homo sapiens, UniProt P01375); assay: RMSD of crystal structure of compound-bound TNFα trimer to Reference Structure Compound 34; conditions: Cα atoms of β-sheet residues, all three subunits, PyMOL
T2 construct: His6Smt-tag (N, cleaved yes); made in house; host or cells: E. coli (vector pEMB54)
Method: Cells were pre-cultured at 37° C. in rich media, induced with the addition of 0.1% arabinose and allowed to express overnight at 25° C. in vector pEMB54. This vector introduces a cleavable N-terminal His6Smt-tag. The cells were lysed and purified by Ni-NTA chelate chromatography. The fusion protein was eluted with buffer containing imidazole and cleaved by the addition of protease. The final cleaved TNFα protein was purified by a subtractive Ni chelate chromatography step to remove the fusion tag and further purified by size exclusion chromatography to remove the remaining impurities. The final TNFα product was typically concentrated to 20.0 mg/ml and flash frozen in liquid nitrogen.
Purified human TNF[…] (20.0 mg/ml, VC 2043) was diluted to 4-7 mg/ml in 10 mM HEPES pH 7.5, 150 mM NaCl buffer followed by overnight incubation at 4° C. with 0.3-0.5 mM compound (1-2 molar excess). The TNF[…] compound complexes were crystallized by sitting drop vapor diffusion by mixing 0.5 μl of complex with 0.5 μl of 21.44% PEG 3350, 100 mM Tris, pH 9.0 (UCB1474433); or 22.0% PEG 3350, 100 mM glycine, 100 mM Tris, pH 8.5 (UCB1480595); or 25.6% PEG 3350, 100 mM Tris, pH 8.3, 3% xylitol (UCB5143079) or other formulation with varying precipitant concentration or additives over 100 μl of the same crystallization solution. Other formulations for other compounds include a range of PEG 3350 of 8-28%. Other PEG-like additives include PEG 1000 (8-18%) or PEG 2000 (10-13%). Other additives include MPD (5-13%) or 200 mM NaCl. Other buffers include 100 mM Hepes (pH 7-8), 100 mM Tris or bis-Tris (pH 6.7-9.0). Other non-PEG 3350 crystallization solutions consist of PEG 2000 (14-19%), 100 mM Hepes, pH 8, 25 mM arginine; or 17% PEG 10000, 200 mM ammonium acetate, 100 mM bis-Tris, pH 5.5; or 30% PEG 2000 MME, 100 mM sodium acetate, 100 mM Mes, pH 6.5.
Crystals were briefly soaked in ethylene glycol and/or vitrified directly in liquid nitrogen for data collection.
X-ray diffraction data were collected from a synchrotron source at a wavelength, most frequently, of 0.976484 Å and recorded on CCD detector. […] The structure of the human TNF[…] (VC 2043) complexed with compound was solved by molecular replacement using Phaser with input model of 1TNF. […] Iterative manual model building using Coot (Emsley and Cowtan, 2004) and Refmac (Murshudov et al., 1997) continued until R and Rfree converged. […] The resolution of the structures was most frequently around 2.15 Å.
Root mean squared deviation (RMSD) calculations were carried out to ascertain the distance of each of the crystal structures of distorted TNFα trimer to a reference structure.
RMSD calculations were done using the program PyMOL (www.pymol.org). In this example version 1.7. was used. The cmd.rms PyMOL command was used with defined pairs of atoms. The atoms used were the backbone Ca's of certain residues within the β-strands of TNFα. The residue numbers used are shown below:
These residue numbers are those within the published structure of TNFα with PDB code 1A8M and within the distorted TNFα trimer structures of this invention. The residue numbers are also according to the sequence of SEQ ID NO:36. The residues in each of the three chains with the TNFα structures, (labelled A, B, and C according to our instructions) were used.
The command cmd.rms was used with the following arguments:
rms=cmd.rms(“(moving)”, “(target)”, matchmaker=4, quiet=0, cycles=0)
where “(moving)” is the selection of atoms in a given TNFα structure and “(target)” is the selection of equivalent atoms within the reference structure.
The RMSD was calculated for each structure against all others. The “representative structure” or “Reference Structure” was chosen to be the one with the lowest sum RMSD to all others—the structure “Compound 34” or “Compound34.pdb”.
Reference Structure (Compound 34) and Query Structure (Compound 64) were overlaid (see FIG. 17 with Reference Structure emboldened) by: • 1. […]

[3] = target: TNFα (Homo sapiens, UniProt P01375); assay: Monomer exchange mass spectrometry, compound pre-incubated with h-TNFα; assay type: binding; set-up: made in house; conditions: 1:1 complex mixed with m-TNFα, 18 hours
Method: Human and mouse homotrimers of TNFα (H3 and M3 respectively) were incubated together and aliquots of the solution monitored by mass spectrometry appearance of the cross species heterotrimers. The mass spectrometric analysis confirmed that monomer exchange between native TNFα trimers was able to occur in solution. The exchange rate was slow and was monitored over a course of 4 hours before full equilibration was achieved (data not shown). The mechanism is unknown, although is it unlikely to involve formation of the dimeric forms as none of these were observed. Monomer exchange is likely to be occurring between pure human and mouse trimers, the mixing of mouse and human trimers simply makes this exchange visible by mass spectrometry.
In a second series of experiments an excess of the compound of formula (3) was incubated with Human TNFα, the excess compound of formula (3) was then removed. Mass Spectral analysis confirmed that a 1:1 complex had been formed between the compound of formula (3) and h-TNFα. Mouse TNFα was now added to this sample which was then subjected to mass spectral analysis over a number of hours. After 18 hours there was no observed change in the composition of the sample. […] In addition, there was no evidence of formation of the M3L species and no evidence of formation of the unligated H3 species. […]

TNFα, sequence (P01375 77-233 limits assumed): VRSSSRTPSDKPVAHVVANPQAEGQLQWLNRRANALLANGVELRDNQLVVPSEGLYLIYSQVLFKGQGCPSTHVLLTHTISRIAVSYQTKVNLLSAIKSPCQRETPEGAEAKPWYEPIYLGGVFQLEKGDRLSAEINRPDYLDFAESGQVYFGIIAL
T2 sequence (P01375 with tags, fused parts or gaps): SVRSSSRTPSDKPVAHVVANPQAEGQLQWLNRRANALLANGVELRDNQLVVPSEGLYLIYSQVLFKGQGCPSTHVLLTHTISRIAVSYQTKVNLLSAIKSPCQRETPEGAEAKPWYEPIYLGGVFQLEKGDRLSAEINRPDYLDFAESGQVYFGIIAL

SMILES | off-rate when complexed with m-TNFα [1] | RMSD (Å) with Compound 34 [2] | off-rate when complexed with h-TNFα [3]
Cc1ccc(C)c(Cn2c(C(O)c3ccncc3)nc3ccccc32)c1 (stereo not drawn) [Compound 3] | measurable off-rate | 0.33 Å | no measurable off-rate
Cc1ccc(C)c(Cn2c(C(O)c3ccncc3)nc3ccc(-c4cnn(C)c4)cc32)c1 (stereo not drawn) [Compound 15] | no measurable off-rate | 0.24 Å | no measurable off-rate

— patent US11674967B2, “Method of identifying potential inhibitors of APO TNFα trimers” (UCB BIOPHARMA SRL, priority 2015, dated 2023)
